The target in one test is T1, NK1 (Oryctolagus cuniculus, UniProt G1SEI7).
T1 construct: The pulmonary arteries are isolated from the rest of the tissues and cut in half to serve as pairs; from tissue; host or cells: rabbit pulmonary artery rings, endothelium intact
Kind of test: Rabbit Pulmonary Artery: NK1 In Vitro Functional Assay (Test C). Type of test: cell-based. The following applies: agonist ASMSP. How it is done: Rabbit Pulmonary Artery: NK1 In Vitro Functional Assay (Test C)
The ability of a Compound of the invention to antagonize the action of the agonist Ac-[Arg^6, Sar^9, Met(O2)^11]
Male New Zealand white rabbits are euthanized via i.v. injection into an ear vein with 60 mg/kg Nembutal (50 mg/mL). Preceding the Nembutal into the vein is Heparin (1000 units/mL) at 0.0025 ml/kg for anticoagulant purposes. The chest cavity is opened from the top of the rib cage to the sternum and the heart, lungs and part of the trachea are removed. The pulmonary arteries are isolated from the rest of the tissues and cut in half to serve as pairs.
The segments are suspended between stainless steel stirrups, so as not to remove any of the endothelium, and placed in water-jacketed (37° C.) tissue baths containing physiological salt solution of the following composition (mM): NaCl, 118.0; KCl, 4.7; CaCl2, 1.8; MgCl2, 0.54; NaH2PO4, 1.0; NaHCO3, 25.0; glucose, 11.0; indomethacin, 0.005(to inhibit cyclooxygenase); and dl-Propranolol, 0.00l(to block β receptors); gassed continuously with 95% O2-5% CO2. Responses are measured on a Grass polygraph via Grass FT-03 transducers and the electrical signals (data) acquired using a Mi^2 software/hardware system for subsequent conversion to measures of relaxation. […]

A further test concerns the target T2, NK2 (Oryctolagus cuniculus, UniProt P79218).
T2 construct: The pulmonary arteries are isolated from the rest of the tissues, then rubbed over an intimal surface to remove the endothelium; from tissue; host or cells: rabbit pulmonary artery rings, endothelium removed
T2 sequence (P79218 1-384): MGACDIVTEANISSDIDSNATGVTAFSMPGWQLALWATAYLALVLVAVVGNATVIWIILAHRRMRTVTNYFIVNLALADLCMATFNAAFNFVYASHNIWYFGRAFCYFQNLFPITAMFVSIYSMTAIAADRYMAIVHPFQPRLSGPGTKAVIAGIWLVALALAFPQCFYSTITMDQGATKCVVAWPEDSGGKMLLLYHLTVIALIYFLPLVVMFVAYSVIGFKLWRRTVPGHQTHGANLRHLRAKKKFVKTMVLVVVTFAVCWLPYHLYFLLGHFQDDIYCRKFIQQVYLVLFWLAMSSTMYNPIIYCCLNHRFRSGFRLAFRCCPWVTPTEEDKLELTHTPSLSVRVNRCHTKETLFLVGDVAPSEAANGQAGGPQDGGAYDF
Kind of test: Rabbit Pulmonary Artery: NK2 In Vitro Functional Assay (Test D). The conditions noted are these: agonist BANK; -log molar KB; read-out: Rabbit Pulmonary Artery NK2 pKb (Test D) (converted). Type of test: cell-based. On the procedure:
NK2 In Vitro Functional Assay (Test D)
The ability of a Compound of the invention to antagonize the action of the agonist [β-ala^8] […] Male New Zealand white rabbits are euthanized via i.v. injection into an ear vein with 60 mg/kg Nembutal (50 mg/mL). Preceding the Nembutal into the vein is Heparin (1000 units/mL) at 0.0025 mL/kg for anticoagulant purposes. The chest cavity is opened from the top of the rib cage to the stemum and a small incision is made into the heart so that the left and right pulmonary arteries can be cannulated with polyethylene tubing (PE260 and PE190 respectively). […] Responses are measured on a Grass polygraph via Grass FT-03 transducers and the electrical signals (data) acquired using a Mi^2 software/hardware system for subsequent conversion to measures of contraction. […]
For non-competitive antagonists, the percent inhibition of contraction is determined at a given concentration of the antagonist Percent inhibition is determined when a tested Compound produces a statistically significant (p<0.05) reduction of the total contraction which is calculated using the total contraction as a percent of the control value. Potencies of competitive Compounds are determined by calculating the apparent dissociation constants (KB) for each concentration tested using the standard equation: […]

The next test deals with T3, NK1 receptors (Cavia porcellus, UniProt P30547).
T3 construct: from tissue; host or cells: whole anesthetized guinea pig (airways)
Kind of test: NK1 In Vivo Functional Assay (Test E), agonist-induced bronchoconstriction in anesthetized guinea pigs. More on the design: species or system guinea pig. The following applies: 120 minutes prior to agonist ASMSP, Dose Ratio of ED50 in presence/absence of antagonist. On the procedure:
NK1 and NK2 In Vivo Functional Assay (Test E)
Exp. Ther., 1993, Vol 267(3), pp 1168-1175. The assay is carried out as follows.
Compounds are tested in anesthetized guinea pigs pretreated with i.v. indomethacin (10 mg/kg, 20 min.), propranolol (0.5 mg/kg, 15 min.), and thiorphan (10 mg/kg, 10 min).
Antagonists or vehicle are administered i.v. and orally, 30 and 120 minutes prior to increasing concentrations of agonist, respectively. The agonists used in these studies are ASMSP (Ac-[Arg^6,Sar^9,Met(O2)^11]-SP(6-11)) and BANK (β-ala-8 NKA4-10).
Administered i.v., ASMSP is selective for NK1 receptors, and BANK is selective for NK2 receptors. Maximum response is defined as zero conductance (GL, 1/Rp). ED50 values are calculated (the dose of agonist resulting in a reduction of GL to 50% of baseline), and converted to the negative logarithm (−logED50). The ED50 values, obtained in the presence (P) and absence (A) of antagonist, are used to calculate a Dose Ratio (P/A), an expression of potency. Data are expressed as mean±SEM and statistical differences were determined using ANOVA/Tukey-Kramer and Student's t-test , with p<0.05 considered statistically significant.

T1 sequence (G1SEI7 1-407): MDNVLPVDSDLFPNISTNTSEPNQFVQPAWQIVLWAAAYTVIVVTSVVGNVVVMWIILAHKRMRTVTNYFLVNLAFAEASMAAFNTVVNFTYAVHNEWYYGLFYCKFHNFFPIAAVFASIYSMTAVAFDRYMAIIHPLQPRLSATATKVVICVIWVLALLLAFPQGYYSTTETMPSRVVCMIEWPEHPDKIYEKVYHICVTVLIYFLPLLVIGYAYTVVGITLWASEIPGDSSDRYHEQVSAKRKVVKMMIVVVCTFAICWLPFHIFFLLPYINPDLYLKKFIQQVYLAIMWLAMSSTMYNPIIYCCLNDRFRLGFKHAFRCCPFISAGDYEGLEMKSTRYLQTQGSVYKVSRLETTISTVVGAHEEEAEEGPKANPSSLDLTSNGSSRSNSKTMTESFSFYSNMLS
T3 sequence (P30547 whole entry): as the sequence (G1SEI7 1-407) above, with S176G, E186S, G329A, L342F, E368D, A369P, N376T, M395V, F399S counted along it

At NK1 (inhibition of relaxation at 10^−8 M), `COc1c(C#N)cc2c(c1C(=O)N(C)C[C@@H](CCN1CCC(c3ccccc3[S@+](C)[O-])CC1)c1ccc(Cl)c(Cl)c1)CCCC2` [Example 5, N-[(S)-2-(3,4-Dichlorophenyl)-4-[4-[(S)-2-methylsulfinylphenyl]-1-piperidinyl]butyl]-N-methyl-3-cyano-2-methoxy-5,6,7,8-tetrahydro-1-naphthamide] had an inhibition at 0.01 µM of 74%. In addition, the Kb on NK2 is 79.4 nM. At NK1 receptors, the “Oral Activity (Test E) NK1 P/A” value worked out at 454.
Regarding `CN(C[C@@H](CCN1CCC(c2ccccc2[S@+](C)[O-])CC1)c1ccc(Cl)c(Cl)c1)C(=O)c1cc(C#N)cc2c1CCCC2` [Example 6, N-[2-(S)-(3,4-Dichlorophenyl)4-[-4-[(S)-2-(methylsulfinyl)phenyl]-1-piperidinyl]butyl]-N-methyl-3-cyano-5,6,7.8-tetrahydro-1-naphthamide], the Kb was 5.01 nM on NK1 (-log molar KB, read-out: Rabbit Pulmonary Artery NK1 pKb (Test C) (converted)) and 25.1 nM on NK2. In addition, on NK1 receptors, the “Oral Activity (Test E) NK1 P/A” value was 147.
